# Test results reported in patent US20040220268A1, “Compound that directly stimulates phospholipase C activity” (priority 2003, published 2004).
# Columns and labels:
# Assay in all cases: Phosphoinositide hydrolysis in vitro
# Assay type in all cases: biochemical
# PLC δ1 = biological target: T1, PLC δ1 (Homo sapiens, UniProt P51178); conditions: 25 μM; purified isozyme
# T1 sequence (P51178 1-756): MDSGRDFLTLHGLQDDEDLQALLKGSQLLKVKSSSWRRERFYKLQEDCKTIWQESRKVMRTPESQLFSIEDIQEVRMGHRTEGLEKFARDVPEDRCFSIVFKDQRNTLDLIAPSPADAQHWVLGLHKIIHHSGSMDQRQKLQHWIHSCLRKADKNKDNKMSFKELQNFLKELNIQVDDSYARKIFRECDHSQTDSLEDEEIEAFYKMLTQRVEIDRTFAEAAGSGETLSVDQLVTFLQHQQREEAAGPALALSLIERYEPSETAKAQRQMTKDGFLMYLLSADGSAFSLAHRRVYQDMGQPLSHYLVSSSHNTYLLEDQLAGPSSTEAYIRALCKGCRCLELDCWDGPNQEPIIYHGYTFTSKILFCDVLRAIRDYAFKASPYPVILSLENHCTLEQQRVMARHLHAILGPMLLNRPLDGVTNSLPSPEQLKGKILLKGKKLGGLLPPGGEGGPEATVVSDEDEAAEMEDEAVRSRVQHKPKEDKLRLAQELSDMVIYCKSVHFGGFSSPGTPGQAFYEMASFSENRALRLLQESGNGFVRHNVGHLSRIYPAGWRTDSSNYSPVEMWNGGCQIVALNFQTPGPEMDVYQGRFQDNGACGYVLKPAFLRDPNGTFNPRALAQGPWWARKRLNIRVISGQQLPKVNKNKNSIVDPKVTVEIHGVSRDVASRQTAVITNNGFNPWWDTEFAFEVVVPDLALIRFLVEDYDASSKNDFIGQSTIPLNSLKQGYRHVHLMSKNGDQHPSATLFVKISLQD
# Experimental: (§1) The hydrolyzing activity of PtdIns-4,5-P2 was measured on mixed phospholipid vesicles containing 120 μM phosphatidylethanolamine, 30 μM PtdIns-4,5-P2, and 1 μCi/ml [3H] PtdIns-4,5-P2. Purified PLC β2, substrates, and the chemicals (2.5, 5, 10, 20, and 25 μM of m-3M3FBS or of o-3M3FBS) were coincubated (A), 25 μM of m-3M3FBS or o-3M3FBS, and phospholipid substrates were mixed with purified PLC β3, γ1, 2, or δ1 (B). Reactions were performed for 10 min at 37° C. in a 200 μl reaction mixture containing lipid micelles (5 μM [^3H] PtdIns-4,5-P2, 20,000 cpm). Reactions were stopped by adding 1 ml of CHCl3:CH3OH:HCl (50:50:0.3, v/v/v). Inositol trisphosphates were extracted with 0.5 ml of 1 M HCl/5 mM EGTA, and the radioactivity in the upper aqueous phase was measured. Data are presented as means ±S. E. M. of three independent experiments (A, B).
# (§2) PLC activity was assayed using [^3H] PtdIns-4,5-P2 as a substrate (Min et al., 1993). PtdIns-4,5-P2-hydrolyzing activity was measured with mixed phospholipid micelles containing 120 μM phosphatidylethanolamine, 30 μM PtdIns-4,5-P2, and 1 μCi/ml [^3H] PtdIns-4,5-P2. The lipids, in chloroform, were dried under a stream of nitrogen gas, suspended in assay buffer (20 mM HEPES pH 7.0, 120 mM NaCl, 2 mM MgCl2, 40 or 100 μM CaCl2, and 1 mg/ml bovine albumin serum (Bayer, Leverkusen, Germany)), and sonicated. All proteins added to the reaction mixture were dialyzed overnight against the assay buffer. Incubation was performed for 10 min at 37° C. in a 200 μl reaction mixture containing lipid micelles (5 μM [3H] PtdIns-4,5-P2, 20,000 cpm). The reaction was stopped by adding 2 ml of CHCl3: CH3OH: HCl (50: 50: 0.3, v/v/v). The inositol triphosphates were extracted with 0.5 ml of 1 N HCl, and radioactivities in the upper aqueous phase were measured.
# PLC β2 = PLC β2 (Homo sapiens, UniProt Q00722)
# Experimental: as §1, §2
# PLC γ1 = biological target: T2, PLC γ1 (Homo sapiens, UniProt P19174); conditions: 25 μM; purified isozyme
# T2 sequence (P19174 1-1290): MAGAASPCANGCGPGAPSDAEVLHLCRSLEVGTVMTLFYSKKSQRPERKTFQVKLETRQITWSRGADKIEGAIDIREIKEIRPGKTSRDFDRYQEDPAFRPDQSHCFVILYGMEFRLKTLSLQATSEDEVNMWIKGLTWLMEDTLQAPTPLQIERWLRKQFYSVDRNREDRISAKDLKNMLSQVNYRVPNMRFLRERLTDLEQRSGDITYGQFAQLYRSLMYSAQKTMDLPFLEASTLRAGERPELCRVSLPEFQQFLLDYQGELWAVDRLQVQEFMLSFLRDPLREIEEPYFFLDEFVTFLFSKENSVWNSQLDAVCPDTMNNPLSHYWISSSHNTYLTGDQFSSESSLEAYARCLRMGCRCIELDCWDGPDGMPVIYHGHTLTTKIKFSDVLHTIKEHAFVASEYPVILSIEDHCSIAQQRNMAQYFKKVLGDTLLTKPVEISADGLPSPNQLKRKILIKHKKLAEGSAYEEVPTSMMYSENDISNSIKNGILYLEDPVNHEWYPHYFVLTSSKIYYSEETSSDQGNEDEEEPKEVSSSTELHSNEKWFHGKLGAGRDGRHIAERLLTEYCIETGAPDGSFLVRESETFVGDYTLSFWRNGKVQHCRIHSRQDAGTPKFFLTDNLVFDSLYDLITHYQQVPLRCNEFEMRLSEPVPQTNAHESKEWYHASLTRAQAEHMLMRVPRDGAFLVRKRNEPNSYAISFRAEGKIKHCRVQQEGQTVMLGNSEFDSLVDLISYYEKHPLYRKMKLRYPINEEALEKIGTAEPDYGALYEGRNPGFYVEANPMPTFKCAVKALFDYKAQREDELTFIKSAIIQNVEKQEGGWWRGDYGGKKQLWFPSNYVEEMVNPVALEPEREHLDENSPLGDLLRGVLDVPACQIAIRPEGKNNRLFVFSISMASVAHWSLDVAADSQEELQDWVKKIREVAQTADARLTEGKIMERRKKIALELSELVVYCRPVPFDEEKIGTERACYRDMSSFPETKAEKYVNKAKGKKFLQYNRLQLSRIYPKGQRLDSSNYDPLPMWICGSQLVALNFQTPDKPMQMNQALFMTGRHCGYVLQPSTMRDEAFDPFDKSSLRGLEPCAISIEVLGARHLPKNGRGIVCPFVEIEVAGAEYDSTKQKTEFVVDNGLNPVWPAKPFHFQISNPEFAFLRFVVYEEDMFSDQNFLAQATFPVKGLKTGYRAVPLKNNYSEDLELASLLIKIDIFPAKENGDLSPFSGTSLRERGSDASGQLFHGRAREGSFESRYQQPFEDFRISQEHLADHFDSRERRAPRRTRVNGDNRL
# Experimental: as §1, §2
# PLC β2, sequence (Q00722 whole entry, species assumed): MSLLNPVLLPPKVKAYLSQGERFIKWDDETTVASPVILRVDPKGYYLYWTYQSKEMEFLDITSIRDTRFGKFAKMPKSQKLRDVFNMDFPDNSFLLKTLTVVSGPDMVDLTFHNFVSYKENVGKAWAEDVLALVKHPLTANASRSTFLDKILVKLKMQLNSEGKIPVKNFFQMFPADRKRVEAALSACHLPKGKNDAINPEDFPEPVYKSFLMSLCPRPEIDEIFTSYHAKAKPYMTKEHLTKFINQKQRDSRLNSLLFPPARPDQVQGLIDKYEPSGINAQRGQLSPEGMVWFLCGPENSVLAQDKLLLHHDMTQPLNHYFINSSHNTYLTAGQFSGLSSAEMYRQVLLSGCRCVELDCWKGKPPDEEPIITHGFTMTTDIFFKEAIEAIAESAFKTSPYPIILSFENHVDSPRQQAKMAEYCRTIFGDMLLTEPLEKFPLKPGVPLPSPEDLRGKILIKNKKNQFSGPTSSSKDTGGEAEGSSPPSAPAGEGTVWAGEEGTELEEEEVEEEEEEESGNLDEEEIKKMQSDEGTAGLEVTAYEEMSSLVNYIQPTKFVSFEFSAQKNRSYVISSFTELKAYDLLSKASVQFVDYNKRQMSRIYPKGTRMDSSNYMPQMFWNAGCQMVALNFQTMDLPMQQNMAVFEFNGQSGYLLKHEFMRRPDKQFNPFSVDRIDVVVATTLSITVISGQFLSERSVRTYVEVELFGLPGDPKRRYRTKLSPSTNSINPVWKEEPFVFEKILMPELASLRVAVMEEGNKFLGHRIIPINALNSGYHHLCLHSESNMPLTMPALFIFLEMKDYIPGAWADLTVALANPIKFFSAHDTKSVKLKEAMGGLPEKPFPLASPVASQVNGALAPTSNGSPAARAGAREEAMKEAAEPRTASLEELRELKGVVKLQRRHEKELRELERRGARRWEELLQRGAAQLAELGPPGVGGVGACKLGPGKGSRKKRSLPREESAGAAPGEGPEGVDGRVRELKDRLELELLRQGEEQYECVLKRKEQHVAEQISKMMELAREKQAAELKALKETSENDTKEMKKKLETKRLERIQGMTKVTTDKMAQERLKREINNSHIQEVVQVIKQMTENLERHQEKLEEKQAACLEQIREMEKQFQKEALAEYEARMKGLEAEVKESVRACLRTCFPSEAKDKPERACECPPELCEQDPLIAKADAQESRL
Compound,activity of PLC delta1 (PLC δ1),"in vitro PLCβ2 activity (PLC β2; [3H] PtdIns as substrate, data not shown)","concentration at which PIP2-hydrolyzing activity of PLC β2 was enhanced (PLC β2; [3H] PtdIns-4,5-P2 substrate)","effect on PIP2-hydrolyzing activity of PLC β2 (PLC β2; low doses (ca., 2.5 and 5 μM), [3H] PtdIns-4,5-P2 substrate)",activity of PLC gamma1 (PLC γ1),effect on PIP2-hydrolyzing activity of PLC β2 (PLC β2; at 10 μM or higher concentrations (up to 25 μM))
"Cc1cc(C)c(S(=O)(=O)Nc2cccc(C(F)(F)F)c2)c(C)c1 [m-3M3FBS, 2,4,6-Trimethyl-N-(meta 3-trifluoromethyl-phenyl)-benzenesulfonamide]",augmented the activity,significantly increased,exceeding 10 μM,no effect,augmented the activity,–
"Cc1cc(C)c(S(=O)(=O)Nc2ccccc2C(F)(F)F)c(C)c1 [o-3M3FBS, 2,4,6-Trimethyl-N-(ortho 3-trifluoromethyl-phenyl)-benzenesulfonamide, reference compound]",did not affect,–,–,–,did not affect,no effect
